Experimental data taken from US11028085B2, “Substituted isoindolin-1-ones and 2,3-dihydro-1h-pyrrolo[3,4-c]pyridin-1-ones as hpk1 antagonists” (Nimbus Saturn, Inc., priority 2019, dated 2021).
Structures can show the parent of a compound that is named as a salt.

Molecular target: HPK1 (Homo sapiens (Human), UniProt Q92918)
Assay: HPK1 biochemical enzyme assay (microfluidic mobility shift assay)
Details: 1.5 nM HPK1, ATP 1 mM final, 60 min at RT, Caliper EZ Reader; read-out: HPK1 1000UMATP caliper IC50
Experimental: HPK1 biochemical enzyme assay: HPK1 enzyme inhibition was measured using a microfluidic mobility shift assay. […] Test compounds were titrated in ten point curves (top final assay concentration […]), and preincubated with enzyme/substrate mix for 30 min prior to initiation of the reaction by addition of ATP (1 mM final concentration) and substrate (1 μM final concentration; Carna Biosciences) diluted in assay buffer supplemented by MgCl2 (final assay concentration of 5 mM). Following 60 min incubation at RT, the reaction was terminated by addition of 60 µl/well termination buffer (Carna Biosciences) and signal determination using a Caliper EZ Reader (Perkin Elmer, UK). […] The compound numbers correspond to the compound numbers in Table 1.

Sequence of HPK1 (Q92918 whole entry): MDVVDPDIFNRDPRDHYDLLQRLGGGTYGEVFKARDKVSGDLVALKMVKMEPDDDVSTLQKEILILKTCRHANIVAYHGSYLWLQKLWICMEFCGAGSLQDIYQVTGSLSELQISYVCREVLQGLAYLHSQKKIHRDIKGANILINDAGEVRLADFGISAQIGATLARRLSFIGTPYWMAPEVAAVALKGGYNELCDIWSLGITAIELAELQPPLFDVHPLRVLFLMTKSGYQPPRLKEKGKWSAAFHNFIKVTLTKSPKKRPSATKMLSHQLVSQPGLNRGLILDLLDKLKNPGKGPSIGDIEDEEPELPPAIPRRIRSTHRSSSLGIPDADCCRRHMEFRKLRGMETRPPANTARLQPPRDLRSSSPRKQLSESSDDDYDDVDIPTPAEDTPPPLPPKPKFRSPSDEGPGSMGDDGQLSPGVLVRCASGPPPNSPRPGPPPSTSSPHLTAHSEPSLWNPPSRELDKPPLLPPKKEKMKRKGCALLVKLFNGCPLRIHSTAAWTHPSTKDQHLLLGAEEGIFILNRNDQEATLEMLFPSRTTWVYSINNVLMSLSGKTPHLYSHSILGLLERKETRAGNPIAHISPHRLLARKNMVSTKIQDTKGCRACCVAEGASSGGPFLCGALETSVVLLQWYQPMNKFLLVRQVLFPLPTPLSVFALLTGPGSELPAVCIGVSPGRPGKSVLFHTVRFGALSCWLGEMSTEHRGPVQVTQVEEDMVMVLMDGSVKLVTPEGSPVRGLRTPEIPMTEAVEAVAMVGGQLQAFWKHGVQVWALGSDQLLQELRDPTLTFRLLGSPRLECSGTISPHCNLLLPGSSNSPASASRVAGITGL

Row | Compound | IC50
1 | (R)-7-((6- ((dimethylamino)- methyl)-5-(3-(2- hydroxypropan- 2-yl)piperidin-1- yl)pyridin-2- yl)amino)-4-(7- fluoroimidazo [1,2-a]pyridin- 3-yl)isoindolin- 1-one [I-745] | < 100 nM
2 | (S)-7-((6- ((dimethylamino)- methyl)-5-(3-(2- hydroxypropan- 2-yl)piperidin-1- yl)pyridin-2- yl)amino)-4-(7- fluoroimidazo [1,2-a]pyridin- 3-yl)isoindolin- 1-one [I-746] | < 100 nM
3 | O=C1NCc2c(-c3cnc4ccccn34)ncc(Nc3ccc(N4CCOCC4)cn3)c21 [I-198, 4-imidazo[1,2-a]pyridin-3-yl-7-[(5-morpholino-2-pyridyl)-amino]-2,3-dihydropyrrolo [3,4-c]pyridin-1-one] | 100 to 1000 nM
4 | Cc1cnc2c(-c3ccc(Nc4ccc(N5CCC(O)CC5)cn4)c4c3CNC4=O)cnn2c1 [I-186, 7-[[5-(4-hydroxy-1-piperidyl)-2-pyridyl)amino]-4-(6-methylpyra-zolo[1,5-a]pyrimidin-3-yl)isoindolin-1-one] | < 100 nM
5 | O=C1NCc2c(-c3cnc4cc(CO)ccn34)ccc(Nc3ccc(N4CCC(O)CC4)cn3)c21 [I-177, 4-[7-(hydroxymeth-yl)imidazo[1,2-a]pyridin-3-yl]-7-[[5-(4-hydroxy-1-piperidyl)-2-pyripyl]amino] isoindolin-1-one] | < 100 nM
6 | Cn1ccc2c(-c3ncc(Nc4ccc(C5CCOC5)c(CN5CCCC5)n4)c4c3CNC4=O)ccnc21 (stereo not shown) [I-552, 4-(1-methylpyrrolo [2,3-b]pyridin-4-yl)-7-[[6-(pyrrolidin-1-ylmethyl)-5-tetralndrofuran-3-yl-2-pyridyl]amino]-2,3-dihydropyrrolo [3,4-c]pyridin-1-one] | < 100 nM
7 | CN1CCN(c2nc(Nc3ccc(-c4cnc5cc(F)ccn45)c4c3C(=O)NC4)ccc2[C@@H]2CCOC2)CC1 [I-802, (S)-4-(7-fluoroimidazo [1,2-a]pyridin-3-yl)-7-((6-(4-methylpiperazin-1-yl)-5-(tetrahydrofuran-3-yl)pyridin-2-yl)amino)isoin-dolin-1-one] | < 100 nM
8 | CC1NC(=O)c2c(Nc3ccc(N4CCC(O)CC4)cn3)ccc(-c3ccnc4c3ccn4C)c21 (stereo in doubt) [I-286, (S)-7-((5-(4-hydroxypiperidin-1-yl)pyridin-2-yl)amino)-3-methyl-4-(1-methyl-1H-pyrrolo[2,3-b]pyridin-4-yl)isoindolin-1-one] | > 1000 nM
9 | Cc1cccn2c(-c3ncc(Nc4ccc(C5CCOC5)c(CN(C)C)n4)c4c3CNC4=O)cnc12 (stereo not shown) [I-539] | < 100 nM
10 | 7-((5-(4-hydroxypiperidin-1-yl)pyridin-2-yl)amino)-4-(imidazo[1,2-a]pyrazin-5-yl)-2,3-dihydro-1H-pyrrolo[3,4-c]pyridin-1-one [I-376] | 100 to 1000 nM
11 | O=C1NCc2c(-c3cnc4cc(F)ccn34)ccc(Nc3ccn(C4CCOCC4)n3)c21 [I-382, 4-(7-fluoroimidazo [1,2-a]pyridin-3-yl)-7-((1-(tetrahydro-2H-pyran-4-yl)-1H-pyrazol-3-yl)amino)isoin-dolin-1-one] | > 1000 nM
12 | O=C1NCc2c(-c3cnc4cc(F)ccn34)ccc(Nc3ccc(N4CCO[C@@H]5CNC[C@@H]54)cn3)c21 [I-690] | < 100 nM
13 | CN(C)Cc1nc(Nc2cnc(-c3ccnc4c3ccn4C)c3c2C(=O)NC3)ccc1O[C@@H]1CCOC1 [I-805, (R)-7-((6-((dimethylamino)-methyl)-5-((tetrahydrofur-an-3-yl)oxy)pyridin-2-yl)amino)-4-(1-methyl-1H-pyrrolo[2,3-b]pyridin-4-yl)-2,3-dihydro-1H-pyrrolo[3,4-c]pyridin-1-one] | < 100 nM
14 | COCC1(O)CCN(c2ccc(Nc3cnc(-c4ccnc5c4ccn5C)c4c3C(=O)NC4)nc2CN(C)C)CC1 [I-851, 7-1(6-[(dimethylamino)-methyl (-5-[4-hydroxy-4-(methoxymeth-yl)-1-piperidyl]-2-pyridyl]amino]-4-(1-methylpyrrolo [2,3-b]pyridin-4-yl)-2,3-dihydropyrrolo [3,4-c]pyridin-1-one Formate salt] | < 100 nM
15 | CC(C)(O)[C@H]1CN(c2ccc(Nc3ccc(-c4cnc5cnccn45)c4c3C(=O)NC4)nc2)CCO1 [I-486, 7-[[5-[(2R)-2-(1-hydroxy-1-methylethyl)morpholin-4-yl]-2-pyridyl]amino]-4-imidazo[1,2-a]pyrazin-3-yl-isoindolin-1-one] | < 100 nM
16 | CC1NC(=O)c2c(Nc3ccc(N4CCC(O)CC4)cn3)ccc(-c3ccnc4c3ccn4C)c21 (stereo in doubt) [I-287, (R)-7-((5-(4-hydroxypiperidin-1-yl)pyridin-2-yl)amino)-3-methyl-4-(1-methyl-1H-pyrrolo[2,3-b]pyridin-4-yl)isoindolin-1-one] | < 100 nM
17 | O=C1NCc2c(-c3ncc4cnccn34)ccc(Nc3ccc(N4CCC(O)CC4)cn3)c21 [I-398, 7-((5-(4-hydroxypipendin-1-yl)pyridin-2-yl)amino)-4-(imidazo[1,5-a]pyrazin-3-yl)isoindolin-1-one] | 100 to 1000 nM

Row | Compound | IC50
18 | CN(C)Cc1nc(Nc2cnc(-c3cccc4c3ccn4C)c3c2C(=O)NC3)ccc1[C@@H]1CCOC1 (single isomer, unassigned) [I-540] | < 100 nM
19 | 7-((5-((3R,4R)-4-fluoro-3-hydroxypiperidin-1-yl)pyridin-2-yl)amino)-4-(imidazo[1,2-a]pyrazin-3-yl)isoindolin-1-one [I-434] | < 100 nM
20 | Cc1ccc2c(-c3ccc(Nc4ccc(CN5CCOCC5)cn4)c4c3CNC4=O)cnn2c1 [I-469, 4-(6-methylpyrazolo[1,5-a]pyridin-3-yl)-7-[[5-(morpholino-methyl)-2-pyridyl]amino] isoindolin-1-one] | < 100 nM
21 | O=C1NCc2c(-c3cnc4cc(F)ccn34)ccc(Nc3ccc(C4CCOCC4)cn3)c21 [I-341] | < 100 nM
22 | O=C1NCc2c(-c3cnc4cc(F)ccn34)ccc(Nc3ccc(N4CCO[C@H]5CNC[C@H]54)cn3)c21 [I-694, 4-(7-fluoroimidazo [1,2-a]pyridin-3-yl)-7-((5-((4aR,7aS)-hexahydro-pyrrolo[3,4-b][1.4]oxazin-4(4aH)-yl)pyridin-2-yl)amino)isoin-dolin-1-one] | < 100 nM
23 | Cc1ccn2c(-c3ncc(Nc4cccc(N5CCC6CNCC65)n4)c4c3CNC4=O)cnc2c1F (stereo not shown) [I-481] | < 100 nM
24 | CN1CCN(c2nc(Nc3ccc(-c4cnc5cc(F)ccn45)c4c3C(=O)NC4)ccc2[C@H]2CCOC2)CC1 [I-801, (R)-4-(7-fluoroimidazo [1,2-a]pyridin-3-yl)-7-((6-(4-methylpiperazin-1-yl)-5-(tetrahydrofuran-3-yl)pyridin-2-yl)amino)isoin-dolin-1-one] | < 100 nM
25 | O=C1NCc2c(-c3cnc4cc(F)ccn34)ccc(Nc3ccc(N4CCC(O)CC4)cn3)c21 [I-138] | < 100 nM
26 | CN1CC(Oc2nc(Nc3ccc(-c4cnc5cc(F)ccn45)c4c3C(=O)NC4)ccc2[C@@H]2CCOC2)C1 [I-816, (S)-4-(7-fluoroimidazo [1,2-a]pyridin-3-yl)-7-((6-((1-methylazetidin-3-yl]oxy)-5-(THF-3-yl)pyridin-2-yl)amino)isoin-dolin-1-one] | < 100 nM
27 | Cn1ccc2c(-c3ncc(Nc4ccc(N5CCNCC5)cn4)c4c3CNC4=O)cccc21 [I-266, 4-(1-methyl-1H-indol-4-yl)-7-((5-(piperazin-1-yl)pyridin-2-yl)amino)-2,3-dihydro-1H-pyrrolo[3,4-c]pyridin-1-one] | < 100 nM
28 | Cc1cccn2c(-c3ccc(Nc4ccc(C5CCOC5)c(CN(C)C)n4)c4c3CNC4=O)cnc12 (stereo in doubt) [I-696, (R)-7-((6-((dimethylamino)-methyl)-5-(tetrahydrofuran-3-yl)pyridin-2-yl)amino)-4-(8-methylimidazo [1,2-a]pyridin-3-yl)isoindolin-1-one] | < 100 nM
29 | Cc1ccn2c(-c3ncc(Nc4cccc(N5CC[C@@H]6CNC[C@@H]65)n4)c4c3CNC4=O)cnc2c1F [I-480, 7-[[6-[(3aR,6aR)-3.3a,4,5,6.6a-hexahydro-2H-pyrrolo[2,3-c]pyrrol-1-yl]-2-pyridyl]amino]-4-(8-fluoro-7-methyl-imidazo[1,2-a]pyridin-3-yl)-2,3-dihydropyrrolo [3,4-c]pyridin-1-one] | 100 to 1000 nM
30 | Cc1ccn2c(-c3ccc(Nc4ccc([C@H]5CCOC5)c(CN(C)C)n4)c4c3CNC4=O)cnc2n1 (stereo in doubt) [I-561, 7-[[6-[(dimethylamino)-methyl]-5-tetralndrofliran-3-yl-2-pyridyl]amino] 4-(7-methylimidazo [1,2-a]pyrimidin-3-yl)isoindolin-1-one] | < 100 nM
31 | O=C1NCc2c(-c3cnc4cc(F)ccn34)ccc(Nc3ccc(N4CCC(N5CCOCC5)CC4)cn3)c21 [I-488, 4-(7-fluoroimidazo [1,2-a]pyridin-3-yl)-7-[[5-(4-morpholino-1-piperidyl)-2-pyridyl]amino] isoindolin-1-one] | < 100 nM
32 | Cc1cccn2c(-c3ccc(Nc4ccc(C5CCOC5)c(CN(C)C)n4)c4c3CNC4=O)cnc12 (stereo in doubt) [I-695, (S)-7-((6-((dimethylamino)-methyl)-5-(tetrahydrofuran-3-yl)pyridin-2-yl)amino)-4-(8-methylimidazo [1,2-a]pyridin-3-yl)isoindolin-1-one] | < 100 nM
33 | O=C1NCc2c(-c3cnc4ccccn34)ccc(Nc3ccc(N4CCC(O)CC4)cn3)c21 [I-125, 7-[[5-(4-hydroxy-1-piperidyl)-2-pyridyl]amino]-4-imidazo[1,2-a]pyridin-3-yl-isoindolin-1-one] | < 100 nM
34 | C[C@@H]1CN(c2ccc(Nc3ccc(-c4cnc5cc(F)ccn45)c4c3C(=O)NC4)nc2CN(C)C)CCO1 [I-541, 7-[[6-[(dimethylamino)-methyl]-5-[(2R)-2-methylmorpho-lin-4-yl]-2-pyridyl]amino] 4-(7-fluoroimidazo [1,2-a]pyridin-3-yl)isoindolin-1-one] | < 100 nM
